# pIC50: −log10 of the molar value.
# System: A375 multi-cell spheroids with HUVEC/MSC, viability
# Assay: Anticancer human tumor A375 cell line growth inhibition [GQUAD];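 further: spheroids exposed to compounds for seven days before readout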
# Conditions: for pIC50: curve of first compound; for viability, T/C: stronger effect = lower value
# Excerpt: DNA G-quadruplex Stabilizer Agents in Combinations in Complex Spheroids
# A high-throughput screen of multi-cell type tumor spheroids was designed to identify active combinations of DNA G-quadruplex stabilizer agents and targeted small molecules. Complex spheroids include a stromal component modeled by human endothelial cells (HUVEC) and fibroblasts modeled by human mesenchymal stem cells (MSCs). The concentration ranges selected for each drug and investigational agent were based upon clinically achievable concentrations if the clinical Cmax of the agent was known.
# Compounds. The drugs and investigational agents: pidnarulex (CX-5461; NSC782164), APTO-253 (NSC789042), BRACO-19 (NSC847499), peposertib (NSC802822), ceralasertib (NSC780249), elimusertib (NSC800525), camonsertib (NSC841442), AZD-1390 (NSC803789), olaparib (NSC753686), talazoparib (NSC767125), ART-558 (NSC835418), sotorasib (NSC818433), MRTX-1133 (NSC836407), SN-38 (NSC673596), topotecan (NSC609699), etoposide (NSC141540), doxorubicin (NSC123127), gemcitabine (NSC613327), 5-fluorouracil (NSC19893), paclitaxel (NSC125973), vemurafenib (NSC761431), panobinostat (NSC761190), R-306465 (JNJ-16241199; NSC773264), adavosertib (NSC754352), TP-3654 (NSC805149), carboplatin (NSC241240), KSQ-4279 (NSC840948), and staurosporine (NSC755774) were obtained from the National Cancer Institute (NCI) Developmental Therapeutics Program Chemical Repository (34). The FDA-approved anticancer drug set is available from the NCI Developmental Therapeutics Program. […] The stock solutions were prepared in dimethyl sulfoxide (DMSO, Sigma-Aldrich, St. Louis, MO, cat. D2650) at 800-fold the tested concentration and stored at -70 degrees C prior to their use. All drugs and investigational agents were tested over a range starting from a high concentration at or near the clinical Cmax and decreasing in half-log increments. If the clinical Cmax for an agent had not been determined, the highest concentration tested was 10 microM.
# 2.3 Cell Culture. All cells were maintained in an incubator at 37 degrees C and 5% CO2 with 95% humidity. The PDC lines were cultured according to standard operating procedures established by the NCI PDMR. All PDCs were thawed and cultured in Matrigel-coated flasks prepared with a working solution of 1X Ham's F-12 nutrient mix, without supplementation (Invitrogen, cat. 11765054), 100 U/mL penicillin-streptomycin (Invitrogen, cat. 15140122), and 2.5% Matrigel (Corning Inc., cat. 354248) for the first three passages. The 857933-349-R-J2-PDC line was cultured in 6C/Colon 1B media, which includes advanced DMEM/F-12 (Thermo Fisher Scientific, cat. 12634028), 10 mM HEPES (Thermo Fisher Scientific, cat. 15630080), 1X GlutaMAX supplement (Thermo Fisher Scientific, cat. 35050061), 0.1 mg/mL primocin (InvivoGen, cat. ant-pm-2), 10% defined fetal bovine serum, heat inactivated (HyClone Laboratories Inc., cat. SH30070.03HI), 50% L-WRN conditioned media (ATCC, cat. CRL-3276), 1.25 mM N-Acetyl-L-cysteine (Sigma-Aldrich, cat. A9165), 10 mM nicotinamide (Sigma-Aldrich, cat. N0636), 1X B-27 supplement (Thermo Fisher Scientific, cat. 17504044), 1X N-2 supplement (Thermo Fisher Scientific, cat. 17502048), 10 microM Y-27632 dihydrochloride (Tocris Bioscience, cat. 1254), and 50 ng/mL human EGF recombinant protein (Thermo Fisher Scientific, cat. PHG0311). The 485176-168-R4-J1-PDC line was cultured in Panc media, which includes all 6C/Colon 1B media components plus 100 ng/mL human FGF-10 (Thermo Fisher Scientific, cat. 100-26), 500 nM SB-431542 (Selleckchem, cat. S1067), and gastrin (Tocris, cat. 3006).
# […]
# [1] = second compound 0.0316 µM, first compound 0.0316 µM
# [2] = second compound 0.0316 µM, first compound 0.1 µM
# [3] = second compound 0.0316 µM, first compound 0.316 µM
# [4] = second compound 0.0316 µM, first compound 1 µM
# [5] = second compound 0.0316 µM, first compound 3.16 µM
# [6] = second compound 0.0316 µM, first compound 10 µM
# [7] = second compound 0.1 µM, first compound 0.0316 µM
# [8] = second compound 0.1 µM, first compound 0.1 µM
# [9] = second compound 0.1 µM, first compound 0.316 µM
# [10] = second compound 0.1 µM, first compound 1 µM
# [11] = second compound 0.1 µM, first compound 3.16 µM
# [12] = second compound 0.1 µM, first compound 10 µM
# [13] = second compound 0.316 µM, first compound 0.0316 µM
# [14] = second compound 0.316 µM, first compound 0.1 µM
# [15] = second compound 0.316 µM, first compound 0.316 µM
# [16] = second compound 0.316 µM, first compound 1 µM
# [17] = second compound 0.316 µM, first compound 3.16 µM
# [18] = second compound 0.316 µM, first compound 10 µM
# [19] = second compound 1 µM, first compound 0.0316 µM
# [20] = second compound 1 µM, first compound 0.1 µM
# [21] = second compound 1 µM, first compound 0.316 µM
# [22] = second compound 1 µM, first compound 1 µM
# [23] = second compound 1 µM, first compound 3.16 µM
# [24] = second compound 1 µM, first compound 10 µM
# [25] = second compound 3.16 µM, first compound 0.0316 µM
# [26] = second compound 3.16 µM, first compound 0.1 µM
# [27] = second compound 3.16 µM, first compound 0.316 µM
# [28] = second compound 3.16 µM, first compound 1 µM
# [29] = second compound 3.16 µM, first compound 3.16 µM
# [30] = second compound 3.16 µM, first compound 10 µM
# [31] = second compound 10 µM, first compound 0.0316 µM
# [32] = second compound 10 µM, first compound 0.1 µM
# [33] = second compound 10 µM, first compound 0.316 µM
# [34] = second compound 10 µM, first compound 1 µM
# [35] = second compound 10 µM, first compound 3.16 µM
# [36] = second compound 10 µM, first compound 10 µM
compound,measurement,setting,value
CC1COCCN1c1cc(C2(S(C)(=N)=O)CC2)nc(-c2ccnc3[nH]ccc23)n1 (stereo unspecified) + CN(C)c1ccc(Nc2c3ccc(NC(=O)CCN4CCCC4)cc3nc3cc(NC(=O)CCN4CCCC4)ccc23)cc1,pIC50,second compound 0.0316 µM,5.22
same,pIC50,second compound 0.1 µM,5.23
same,pIC50,second compound 0.316 µM,5.20
same,pIC50,second compound 1 µM,5.14
same,pIC50,second compound 3.16 µM,5.13
same,pIC50,second compound 10 µM,5.19
same,"viability, T/C",[1],102%
same,"viability, T/C",[2],105%
same,"viability, T/C",[3],102%
same,"viability, T/C",[4],108%
same,"viability, T/C",[5],68.5%
same,"viability, T/C",[6],36%
same,"viability, T/C",[7],108%
same,"viability, T/C",[8],104%
same,"viability, T/C",[9],106%
same,"viability, T/C",[10],102%
same,"viability, T/C",[11],67.8%
same,"viability, T/C",[12],34.5%
same,"viability, T/C",[13],105%
same,"viability, T/C",[14],101%
same,"viability, T/C",[15],107%
same,"viability, T/C",[16],107%
same,"viability, T/C",[17],71.9%
same,"viability, T/C",[18],35%
same,"viability, T/C",[19],106%
same,"viability, T/C",[20],95.7%
same,"viability, T/C",[21],114%
same,"viability, T/C",[22],108%
same,"viability, T/C",[23],68%
same,"viability, T/C",[24],43.2%
same,"viability, T/C",[25],118%
same,"viability, T/C",[26],95.8%
same,"viability, T/C",[27],97.2%
same,"viability, T/C",[28],108%
same,"viability, T/C",[29],78.3%
same,"viability, T/C",[30],40.3%
same,"viability, T/C",[31],95.5%
same,"viability, T/C",[32],98.3%
same,"viability, T/C",[33],101%
same,"viability, T/C",[34],96.8%
same,"viability, T/C",[35],64.8%
same,"viability, T/C",[36],40.6%
COc1ccc([C@@H](O)c2cc(-c3ncnc4cc(N5CCOCC5)ccc34)c(F)cc2Cl)nn1 + CN(C)c1ccc(Nc2c3ccc(NC(=O)CCN4CCCC4)cc3nc3cc(NC(=O)CCN4CCCC4)ccc23)cc1,pIC50,second compound 0.0316 µM,< 5.00
same,pIC50,second compound 0.1 µM,< 5.00
same,pIC50,second compound 0.316 µM,< 5.00
same,pIC50,second compound 1 µM,< 5.00
same,pIC50,second compound 3.16 µM,< 5.00
same,pIC50,second compound 10 µM,< 5.00
same,"viability, T/C",[1],106%
same,"viability, T/C",[2],103%
same,"viability, T/C",[3],106%
same,"viability, T/C",[4],105%
same,"viability, T/C",[5],91.9%
same,"viability, T/C",[6],74.5%
same,"viability, T/C",[7],107%
same,"viability, T/C",[8],111%
same,"viability, T/C",[9],100%
same,"viability, T/C",[10],108%
same,"viability, T/C",[11],95.6%
same,"viability, T/C",[12],71.5%
same,"viability, T/C",[13],109%
same,"viability, T/C",[14],101%
same,"viability, T/C",[15],104%
same,"viability, T/C",[16],99.7%
same,"viability, T/C",[17],93%
same,"viability, T/C",[18],70.7%
same,"viability, T/C",[19],103%
same,"viability, T/C",[20],101%
same,"viability, T/C",[21],108%
same,"viability, T/C",[22],111%
same,"viability, T/C",[23],97.6%
same,"viability, T/C",[24],78.9%
same,"viability, T/C",[25],104%
same,"viability, T/C",[26],99.3%
same,"viability, T/C",[27],106%
same,"viability, T/C",[28],102%
same,"viability, T/C",[29],90.5%
same,"viability, T/C",[30],83.3%
same,"viability, T/C",[31],110%
same,"viability, T/C",[32],93.6%
same,"viability, T/C",[33],98.5%
same,"viability, T/C",[34],97.7%
same,"viability, T/C",[35],77%
same,"viability, T/C",[36],64.2%
O=C(c1cc(Cc2n[nH]c(=O)c3ccccc23)ccc1F)N1CCN(C(=O)C2CC2)CC1 + CN(C)c1ccc(Nc2c3ccc(NC(=O)CCN4CCCC4)cc3nc3cc(NC(=O)CCN4CCCC4)ccc23)cc1,pIC50,second compound 0.0316 µM,< 5.00
same,pIC50,second compound 0.1 µM,< 5.00
same,pIC50,second compound 0.316 µM,< 5.00
same,pIC50,second compound 1 µM,< 5.00
same,pIC50,second compound 3.16 µM,< 5.00
same,pIC50,second compound 10 µM,< 5.00
same,"viability, T/C",[1],104%
same,"viability, T/C",[2],95.7%
same,"viability, T/C",[3],113%
same,"viability, T/C",[4],99.9%
same,"viability, T/C",[5],103%
same,"viability, T/C",[6],81.1%
same,"viability, T/C",[7],104%
same,"viability, T/C",[8],102%
same,"viability, T/C",[9],103%
same,"viability, T/C",[10],100%
same,"viability, T/C",[11],102%
same,"viability, T/C",[12],75.6%
same,"viability, T/C",[13],101%
same,"viability, T/C",[14],101%
same,"viability, T/C",[15],102%
same,"viability, T/C",[16],105%
same,"viability, T/C",[17],97.6%
same,"viability, T/C",[18],77.6%
same,"viability, T/C",[19],97.1%
same,"viability, T/C",[20],102%
same,"viability, T/C",[21],93.8%
same,"viability, T/C",[22],103%
same,"viability, T/C",[23],102%
same,"viability, T/C",[24],86.8%
same,"viability, T/C",[25],100%
same,"viability, T/C",[26],97.5%
same,"viability, T/C",[27],100%
same,"viability, T/C",[28],101%
same,"viability, T/C",[29],103%
same,"viability, T/C",[30],73.6%
same,"viability, T/C",[31],100%
same,"viability, T/C",[32],96.4%
same,"viability, T/C",[33],98.8%
same,"viability, T/C",[34],103%
same,"viability, T/C",[35],92.9%
same,"viability, T/C",[36],66.7%
